Test results reported in US20140128402A1, “PHARMACEUTICAL COMBINATION” (IPCA Laboratories Limited, priority 2011, published 2014).

Columns and labels:
Format in all cases: in vivo, Wistar rats
[1] = test system: STZ induced diabetic rats; assay: Study No 2: blood glucose in STZ induced diabetic rats (HCQ with vildagliptin and saxagliptin); details: for Plasma glucose concentration: oral
Experimental: In this experiment 96 Wistar rats weighing 150-200 g of either sex were divided randomly into 16 groups consisting of 6 rats each. The study drugs were dissolved in water/suspended in vehicle [0.1% w/v suspension of Tween 80 and carboxymethylcellulose (CMC) in water] and administered orally for 28 days. Group 1 (normal vehicle control) consisted of normal rats that neither received Streptozotocin (STZ) nor any test drug; Group 2 served as Streptozotocin induced diabetic control [Diabetes was induced in rats by single administration of Streptozotocin (55 mg/kg/i.p.) dissolved in 0.1 M-citrate buffer, pH 4.5]. Forty-eight hours later, blood samples were collected and glucose levels were determined to confirm the development of diabetes. Only animals showing hyperglycaemia (blood glucose levels>250 mg/dl) were considered as diabetic and received vehicle orally; Group 3 was diabetic rats treated with hydroxychloroquine (HCQ) (22.5 mg/kg); Group 4 was diabetic rats treated with HCQ (45 mg/kg), Group 5 was diabetic rats treated with vildagliptin (VG) 6 mg/kg; Group 6 was diabetic rats treated with VG 12 mg/kg; Group 7 was diabetic rats treated with HCQ 22.5 mg/kg+VG 12 mg/kg and Group 8 was diabetic rats treated with combination of HCQ 45 mg/kg and VG 6 mg/kg; Group 9 was diabetic rats treated with saxagliptin (SG) 0.3 mg/kg; Group 10 was diabetic rats treated with Saxagliptin (SG) 0.6 mg/kg; Group 11 was diabetic rats treated with combination of HCQ 45 mg/kg+SG 0.3 mg/kg; Group 12 was diabetic rats treated with combination of HCQ 22.5 mg/kg+SG 0.6 mg/kg; Group 13 was diabetic rats treated with combination of HCQ 22.5 mg/kg and VG 6 mg/kg; Group 14 was diabetic rats treated with combination of HCQ 45 mg/kg and VG 12 mg/kg; Group 15 was diabetic rats treated with combination of HCQ 22.5 mg/kg+SG 0.3 mg/kg; Group 16 was diabetic rats treated with combination of HCQ 45 mg/kg+SG 0.6 mg/kg.
Blood glucose level was measured in normal and experimental rats at 0, 7th, 14th, 21st and 28th day of administration.

[2] = test system: STZ-induced diabetic rats; assay: Study No 2: biochemical parameters in STZ-induced diabetic rats; details: for Creatinine / HbA1c / Total Protein / Urea: after 28 days, oral
[3] = test system: STZ-induced diabetic rats; assay: Study No 2: body weight, water intake and food intake in STZ-induced diabetic rats; details: for AVERAGE FOOD INTAKE / AVERAGE WATER INTAKE / Body Weight: oral
[4] = HCQ 22.5, VG 6, SG 0.3 mg/kg alone, HCQ+VG 22.5+6, HCQ+SG 22.5+0.3 mg/kg/day
[5] = HCQ 45, VG 12, SG 0.6 mg/kg alone, HCQ+VG 45+12, HCQ+SG 45+0.6 mg/kg/day
[6] = monotherapies, all the tested dose levels except HCQ (22.5 mg/kg), p≦0.05
[7] = Day 0, HCQ 22.5, VG 6, SG 0.3 mg/kg alone, HCQ+VG 22.5+6, HCQ+SG 22.5+0.3 mg/kg/day
[8] = Day 0, HCQ 45, VG 12, SG 0.6 mg/kg alone, HCQ+VG 45+12, HCQ+SG 45+0.6 mg/kg/day
[9] = Day 7, HCQ 22.5, VG 6, SG 0.3 mg/kg alone, HCQ+VG 22.5+6, HCQ+SG 22.5+0.3 mg/kg/day
[10] = Day 7, HCQ 45, VG 12, SG 0.6 mg/kg alone, HCQ+VG 45+12, HCQ+SG 45+0.6 mg/kg/day
[11] = Day 14, HCQ 22.5, VG 6, SG 0.3 mg/kg alone, HCQ+VG 22.5+6, HCQ+SG 22.5+0.3 mg/kg/day
[12] = Day 14, HCQ 45, VG 12, SG 0.6 mg/kg alone, HCQ+VG 45+12, HCQ+SG 45+0.6 mg/kg/day
[13] = Day 21, HCQ 22.5, VG 6, SG 0.3 mg/kg alone, HCQ+VG 22.5+6, HCQ+SG 22.5+0.3 mg/kg/day
[14] = Day 21, HCQ 45, VG 12, SG 0.6 mg/kg alone, HCQ+VG 45+12, HCQ+SG 45+0.6 mg/kg/day
[15] = Day 28, HCQ 22.5, VG 6, SG 0.3 mg/kg alone, HCQ+VG 22.5+6, HCQ+SG 22.5+0.3 mg/kg/day
[16] = Day 28, HCQ 45, VG 12, SG 0.6 mg/kg alone, HCQ+VG 45+12, HCQ+SG 45+0.6 mg/kg/day

N#C[C@@H]1CCCN1C(=O)CNC12CC3CC(CC(O)(C3)C1)C2 [VG, Vildagliptin]
Plasma glucose concentration ([1]; Day 0, HCQ 22.5, VG 6, SG 0.3 mg/kg alone, HCQ+VG 22.5+6, HCQ+SG 22.5+0.3 mg/kg): 296 ± 21.59 mg/dL | Plasma glucose concentration ([1]; Day 0, HCQ 45, VG 12, SG 0.6 mg/kg alone, HCQ+VG 45+12, HCQ+SG 45+0.6 mg/kg): 288 ± 11.58 mg/dL | Plasma glucose concentration ([1]; Day 7, HCQ 22.5, VG 6, SG 0.3 mg/kg alone, HCQ+VG 22.5+6, HCQ+SG 22.5+0.3 mg/kg): 242.17 ± 40.58 mg/dL | Plasma glucose concentration ([1]; Day 7, HCQ 45, VG 12, SG 0.6 mg/kg alone, HCQ+VG 45+12, HCQ+SG 45+0.6 mg/kg): 227 ± 40.57 mg/dL | Plasma glucose concentration ([1]; Day 14, HCQ 22.5, VG 6, SG 0.3 mg/kg alone, HCQ+VG 22.5+6, HCQ+SG 22.5+0.3 mg/kg): 199.83 ± 35.33 mg/dL | Plasma glucose concentration ([1]; Day 14, HCQ 45, VG 12, SG 0.6 mg/kg alone, HCQ+VG 45+12, HCQ+SG 45+0.6 mg/kg): 188.83 ± 34.23 mg/dL | Plasma glucose concentration ([1]; Day 21, HCQ 22.5, VG 6, SG 0.3 mg/kg alone, HCQ+VG 22.5+6, HCQ+SG 22.5+0.3 mg/kg): 191.33 ± 22.46 mg/dL | Plasma glucose concentration ([1]; Day 21, HCQ 45, VG 12, SG 0.6 mg/kg alone, HCQ+VG 45+12, HCQ+SG 45+0.6 mg/kg): 173.5 ± 15.6 mg/dL | Plasma glucose concentration ([1]; Day 28, HCQ 22.5, VG 6, SG 0.3 mg/kg alone, HCQ+VG 22.5+6, HCQ+SG 22.5+0.3 mg/kg): 182.67 ± 33.01 mg/dL | Plasma glucose concentration ([1]; Day 28, HCQ 45, VG 12, SG 0.6 mg/kg alone, HCQ+VG 45+12, HCQ+SG 45+0.6 mg/kg): 167.5 ± 9.12 mg/dL | blood glucose levels as compared to diabetic control group ([1]; alone at therapeutic equivalent doses, day 28): significant improvement | Creatinine [2, 4]: 1.78 ± 0.14 mg/dL | HbA1c [2, 4]: 10.76 ± 0.97 % | Total Protein [2, 4]: 7.08 ± 0.55 gm/dl | Urea [2, 4]: 21.48 ± 4.35 mg/dL | Creatinine [2, 5]: 1.69 ± 0.21 mg/dL | HbA1c [2, 5]: 9.97 ± 0.95 % | Total Protein [2, 5]: 7.15 ± 0.19 gm/dl | Urea [2, 5]: 20.23 ± 1.89 mg/dL | HbA1c levels as compared to diabetic control ([2]; all tested doses, 28 days, p≦0.05): significantly (p≦0.05) reduced | total protein level as compared to the diabetic control group ([2]; monotherapies at all doses, 28 days, p≦0.05): significant rise | creatinine levels as compared to diabetic control group [2, 6]: significant reduction | urea levels as compared to diabetic control group [2, 6]: significant reduction | AVERAGE FOOD INTAKE [3, 7]: 11.40 g | AVERAGE WATER INTAKE [3, 7]: 25.00 mL | Body Weight [3, 7]: 195 ± 7.18 g | AVERAGE FOOD INTAKE [3, 8]: 11.90 g | AVERAGE WATER INTAKE [3, 8]: 24.35 mL | Body Weight [3, 8]: 197.5 ± 6.35 g | AVERAGE FOOD INTAKE [3, 9]: 13.00 g | AVERAGE WATER INTAKE [3, 9]: 22.12 mL | Body Weight [3, 9]: 179.17 ± 11.27 g | AVERAGE FOOD INTAKE [3, 10]: 13.50 g | AVERAGE WATER INTAKE [3, 10]: 22.19 mL | Body Weight [3, 10]: 189 ± 3.52 g | AVERAGE FOOD INTAKE [3, 11]: 12.10 g | AVERAGE WATER INTAKE [3, 11]: 21.32 mL | Body Weight [3, 11]: 182.83 ± 12.66 g | AVERAGE FOOD INTAKE [3, 12]: 12.00 g | AVERAGE WATER INTAKE [3, 12]: 22.11 mL | Body Weight [3, 12]: 187.67 ± 6.38 g | AVERAGE FOOD INTAKE [3, 13]: 12.90 g | AVERAGE WATER INTAKE [3, 13]: 25.12 mL | Body Weight [3, 13]: 185.67 ± 11.86 g | AVERAGE FOOD INTAKE [3, 14]: 13.05 g | AVERAGE WATER INTAKE [3, 14]: 26.13 mL | Body Weight [3, 14]: 186.5 ± 8.83 g | AVERAGE FOOD INTAKE [3, 15]: 14.33 g | AVERAGE WATER INTAKE [3, 15]: 26.31 mL | Body Weight [3, 15]: 189.5 ± 11.81 g | AVERAGE FOOD INTAKE [3, 16]: 14.30 g | AVERAGE WATER INTAKE [3, 16]: 25.71 mL | Body Weight [3, 16]: 185.67 ± 11.69 g | body weight as compared to diabetic control group ([3]; monotherapies, p≦0.05): reduction was significantly less
